# How the values were obtained:
# recombinant human PAI-1 [1] = biological target: T1, recombinant human PAI-1 (Homo sapiens, UniProt P05121); assay: biochemical
# Experimental: <Compotion of pH7.4 HEPES Buffer>
# (§1) • 0.1 M HEPES • 0.1 M NaCl • […] • 0.1% Polyethylene glycol 8,000 (Hampton Research Corporation) • 2 mM Dimethyldecylphoshine oxide [Apo-10] (Fluka Corporation) [Results]
# [2] = test system: Crlj:CD(SD) rat AV shunt model; assay: Test Example 5: anti-thrombotic activity (rat AV shunt model); assay type: in vivo; conditions: oral, 10 mg/kg/day for 4 days, mean ± S.E., vehicle 72.7 ± 2.7, *p < 0.05
# Experimental: The administration on the 4th day was carried out about 1 hour before the following perfusion start. Put a 6.5 cm silk thread (Matsuda Ika Kogyou; […] On the connected part where the silk thread is through, parafilm was wrapped around to avoid blood leakage. […] Saline was filled in the above catheter, and both ends of the catheter were inserted in right carotid artery and […], respectively, and blood was circulated. 30 minutes later, the catheter was pinched with forceps to stop blood flow, and tube parts where the silk thread is through were cut and removed. The silk thread was carefully removed from the tubes, remaining wet weight was weighed after removing the liquid phase by filter paper, and further subtraction of the weight of the silk thread, gives the thrombus weight. For the thrombus weight in each group, an average value±standard error (S.E.) was calculated. […] For the test, the SAS System Release 8.2 (TS2M0) for Windows (Registered Trademark) (SAS Institute Inc.) and its coorperative system […] Ver. 7.10 (Arm Systex Co. Ltd.) were employed.
# recombinant rat PAI-1 = biological target: T2, recombinant rat PAI-1 (Rattus norvegicus, UniProt P20961); assay: biochemical
# T2 sequence (P20961 24-402): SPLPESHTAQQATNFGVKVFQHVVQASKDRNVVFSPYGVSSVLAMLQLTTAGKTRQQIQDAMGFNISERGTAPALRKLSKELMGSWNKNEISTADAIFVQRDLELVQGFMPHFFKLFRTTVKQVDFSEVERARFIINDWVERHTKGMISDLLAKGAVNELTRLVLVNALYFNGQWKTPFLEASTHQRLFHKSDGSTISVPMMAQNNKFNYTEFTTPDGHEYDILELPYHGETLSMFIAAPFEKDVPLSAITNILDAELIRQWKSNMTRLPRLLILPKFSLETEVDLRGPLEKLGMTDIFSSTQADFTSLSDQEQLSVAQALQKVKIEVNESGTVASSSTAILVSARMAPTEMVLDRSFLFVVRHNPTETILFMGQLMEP
# Experimental: as §1
# recombinant human PAI-1 [3] = biological target: T1, recombinant human PAI-1; assay: Test Example 1: human PAI-1 inhibitory activity (tPA fluorogenic substrate, pH7.5 Tris buffer); assay type: biochemical; parameters: purchased Molecular Innovations, Inc; conditions: for Inhibition Rate of Human PAI-1 Activity (%): Tris buffer pH7.5
# Experimental: In a 96-well multiplate (black), 1.5 μl of DMSO solution of the present application compound prepared to achieve 80-fold the test concentration (=the final concentration when fluorogenic substrate is added) was diluted with 52.5 μl of pH7.5 Tris buffer. […] Furthermore, 30 μl of 800 IU/ml two-chain tPA (Activity Standard; American diagnostics, inc.) prepared by Tris buffer was added, and the mixed solution was incubated for 15 minutes at room temperature. To this, 30 μl of 400 μM fluorogenic substrate (Pyr-Gly-Arg-MCA; Peptide Institute, Inc.) for tPA prepared by Tris buffer was added and reacted for 30 minutes at room temperature.
# <Composition of pH7.5 Tris Buffer)
# [4] = read-out: Inhibition Rate of Rat PAI-1 Activity (%)
# [5] = pH 7.5, read-out: Inhibition Rate of Human PAI-1 Activity (%)
# T1 sequence (P05121 24-402): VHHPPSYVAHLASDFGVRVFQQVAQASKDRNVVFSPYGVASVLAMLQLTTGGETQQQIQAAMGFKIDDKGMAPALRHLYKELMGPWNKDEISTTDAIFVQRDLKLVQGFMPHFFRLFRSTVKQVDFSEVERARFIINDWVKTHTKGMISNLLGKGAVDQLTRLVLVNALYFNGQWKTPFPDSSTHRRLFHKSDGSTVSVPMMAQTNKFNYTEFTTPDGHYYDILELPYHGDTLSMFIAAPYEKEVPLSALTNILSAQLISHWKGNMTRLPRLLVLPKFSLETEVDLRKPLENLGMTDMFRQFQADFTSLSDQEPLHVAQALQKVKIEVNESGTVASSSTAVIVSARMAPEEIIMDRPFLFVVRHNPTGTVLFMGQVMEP
smiles,measurement,setting,value
"CC(C)(C)c1ccc(COc2ccc(-c3ccc(OC(F)(F)F)cc3)cc2CCC(=O)O)cc1 [Compound 5, 3-{4-[4-(tert-butyl)benzyloxy]-4′-(trifluoromethoxy)biphenyl-3-yl}propanoic acid]",IC50,recombinant human PAI-1 [1],1270 nM
same,Thrombus Weight (mg),[2],57.5 ± 5.0* mg
same,IC50,recombinant rat PAI-1,2800 nM
"CC(C)(C)c1ccc(COc2ccc(-c3ccc(OC(F)(F)F)cc3)cc2CC(=O)O)cc1 [Compound 9, {4-[4-(tert-butyl)benzyloxy]-4′-(trifluoromethoxy)biphenyl-3-yl}acetic acid]",IC50,recombinant human PAI-1 [1],1300 nM
same,IC50,recombinant rat PAI-1,2070 nM
"CC(C)(C)c1ccc(Oc2ccc(-c3ccc(OC(F)(F)F)cc3)cc2CCC(=O)O)cc1 [Compound 13, 3-{4-[4-(tert-butyl)phenoxy]-4′-(trifluoromethoxy)biphenyl-3-yl}propanoic acid]",IC50,recombinant human PAI-1 [1],1170 nM
same,IC50,recombinant rat PAI-1,2170 nM
same,inhibition at 10 µM,recombinant rat PAI-1; [4],> 99%
"CC(C)(C)c1ccc(-c2ccc(OCc3ccccc3)c(CCC(=O)O)c2)cc1 [Compound 53, 3-[4-benzyloxy-4′-(tert-butyl)biphenyl-3-yl]propanoic acid]",Inhibition Rate of Human PAI-1 Activity (%),recombinant human PAI-1 [3]; compound 5 μM,20%
same,Inhibition Rate of Human PAI-1 Activity (%),recombinant human PAI-1 [3]; compound 10 μM,50%
same,Inhibition Rate of Human PAI-1 Activity (%),recombinant human PAI-1 [3]; compound 25 μM,93%
"CC(C)(C)c1ccc(-c2ccc(OCc3ccc(OC(F)(F)F)cc3)c(/C=C/C(=O)O)c2)cc1 [Compound 56, (E)-3-{4′-(tert-butyl)-4-[4-(trifluoromethoxy)benzyloxy]biphenyl-3-yl}propenoic acid]",Inhibition Rate of Human PAI-1 Activity (%),recombinant human PAI-1 [3]; compound 5 μM,32%
same,Inhibition Rate of Human PAI-1 Activity (%),recombinant human PAI-1 [3]; compound 10 μM,69%
same,Inhibition Rate of Human PAI-1 Activity (%),recombinant human PAI-1 [3]; compound 25 μM,94%
"CC(C)(C)c1ccc(-c2ccc(OCc3ccc(OC(F)(F)F)cc3)c(CCC(=O)O)c2)cc1 [Compound 57, 3-{4′-(tert-butyl)-4-[4-(trifluoromethoxy)benzyloxy]biphenyl-3-yl}propanoic acid]",Inhibition Rate of Human PAI-1 Activity (%),recombinant human PAI-1 [3]; compound 5 μM,28%
same,Inhibition Rate of Human PAI-1 Activity (%),recombinant human PAI-1 [3]; compound 10 μM,64%
same,Inhibition Rate of Human PAI-1 Activity (%),recombinant human PAI-1 [3]; compound 25 μM,94%
"O=C(O)CCc1cc(-c2ccccc2)ccc1OCc1ccc(OC(F)(F)F)cc1 [Compound 58, 3-{4-[4-(trifluoromethoxy)benzyloxy]biphenyl-3-yl}propanoic acid]",Inhibition Rate of Human PAI-1 Activity (%),recombinant human PAI-1 [3]; compound 5 μM,19%
same,Inhibition Rate of Human PAI-1 Activity (%),recombinant human PAI-1 [3]; compound 10 μM,32%
same,Inhibition Rate of Human PAI-1 Activity (%),recombinant human PAI-1 [3]; compound 25 μM,74%
"CC(C)(C)c1ccc(COc2ccc(-c3ccc(OC(F)(F)F)cc3)cc2N(Cc2ccccc2)C(=O)C(=O)O)cc1 [Compound 59, N-benzyl-N-{4-[4-(tert-butyl)benzyloxy]-4′-(trifluoromethoxy)biphenyl-3-yl}oxamic acid]",inhibition at 3 µM,"recombinant human PAI-1 [1]; pH 7.4, read-out: Inhibition Rate of Human PAI-1 Activity (%)",> 99%
same,inhibition at 25 µM,recombinant human PAI-1 [3]; [5],81%
same,inhibition at 3 µM,recombinant rat PAI-1; [4],> 99%
same,inhibition at 10 µM,recombinant rat PAI-1; [4],> 99%
"COc1ccccc1-c1ccc(OCc2ccc(C(C)(C)C)cc2)c(/C=C/C(=O)O)c1 [Compound 61, (E)-3-{4-[4-(tert-butyl)benzyloxy]-2′-methoxybiphenyl-3-yl}propenoic acid]",Inhibition Rate of Human PAI-1 Activity (%),recombinant human PAI-1 [3]; compound 5 μM,21%
same,Inhibition Rate of Human PAI-1 Activity (%),recombinant human PAI-1 [3]; compound 10 μM,46%
same,Inhibition Rate of Human PAI-1 Activity (%),recombinant human PAI-1 [3]; compound 25 μM,95%
"COc1ccccc1-c1ccc(OCc2ccc(C(C)(C)C)cc2)c(CCC(=O)O)c1 [Compound 62, 3-{4-[4-(tert-butyl)benzyloxy]-2′-methoxybiphenyl-3-yl}propanoic acid]",Inhibition Rate of Human PAI-1 Activity (%),recombinant human PAI-1 [3]; compound 5 μM,22%
same,Inhibition Rate of Human PAI-1 Activity (%),recombinant human PAI-1 [3]; compound 10 μM,47%
same,Inhibition Rate of Human PAI-1 Activity (%),recombinant human PAI-1 [3]; compound 25 μM,91%
"COc1ccc(COc2ccc(-c3ccc(OC(F)(F)F)cc3)cc2CCC(=O)O)cc1 [Compound 66, 3-[4-(4-methoxybenzyloxy)-4′-(trifluoromethoxy)biphenyl-3-yl]propanoic acid]",Inhibition Rate of Human PAI-1 Activity (%),recombinant human PAI-1 [3]; compound 5 μM,15%
same,Inhibition Rate of Human PAI-1 Activity (%),recombinant human PAI-1 [3]; compound 10 μM,35%
same,Inhibition Rate of Human PAI-1 Activity (%),recombinant human PAI-1 [3]; compound 25 μM,25%
"CC(C)(C)c1ccc(COc2ccc(-c3ccc(OC(F)(F)F)cc3)cc2CCc2nnn[nH]2)cc1 [Compound 69, 5-{2-{4-[4-(tert-butyl)benzyloxy]-4′-(trifluoromethoxy)biphenyl-3-yl}ethyl}-1H-tetrazole]",inhibition at 10 µM,recombinant human PAI-1 [3]; [5],34%
same,inhibition at 25 µM,recombinant human PAI-1 [3]; [5],> 99%
"CC(C)(C)c1ccc(COc2ccc(-c3cccc(OC(F)(F)F)c3)cc2/C=C/C(=O)O)cc1 [Compound 70, (E)-3-{4-[4-(tert-butyl)benzyloxy]-3′-(trifluoromethoxy)biphenyl-3-yl}propenoic acid]",Inhibition Rate of Human PAI-1 Activity (%),recombinant human PAI-1 [3]; compound 5 μM,38%
same,Inhibition Rate of Human PAI-1 Activity (%),recombinant human PAI-1 [3]; compound 10 μM,72%
same,Inhibition Rate of Human PAI-1 Activity (%),recombinant human PAI-1 [3]; compound 25 μM,93%
"CC(C)(C)c1ccc(COc2ccc(-c3cccc(OC(F)(F)F)c3)cc2CCC(=O)O)cc1 [Compound 71, 3-{4-[4-(tert-butyl)benzyloxy]-3′-(trifluoromethoxy)biphenyl-3-yl}propanoic acid]",Inhibition Rate of Human PAI-1 Activity (%),recombinant human PAI-1 [3]; compound 5 μM,49%
same,Inhibition Rate of Human PAI-1 Activity (%),recombinant human PAI-1 [3]; compound 10 μM,74%
same,Inhibition Rate of Human PAI-1 Activity (%),recombinant human PAI-1 [3]; compound 25 μM,95%
"CC(C)(C)c1ccc(COc2ccc(-c3ccccc3OC(F)(F)F)cc2/C=C/C(=O)O)cc1 [Compound 72, (E)-3-{4-[4-(tert-butyl)benzyloxy]-2′-(trifluoromethoxy)biphenyl-3-yl}propenoic acid]",Inhibition Rate of Human PAI-1 Activity (%),recombinant human PAI-1 [3]; compound 5 μM,42%
same,Inhibition Rate of Human PAI-1 Activity (%),recombinant human PAI-1 [3]; compound 10 μM,72%
same,Inhibition Rate of Human PAI-1 Activity (%),recombinant human PAI-1 [3]; compound 25 μM,93%
"CC(C)(C)c1ccc(COc2ccc(-c3ccccc3OC(F)(F)F)cc2CCC(=O)O)cc1 [Compound 73, 3-{4-[4-(tert-butyl)benzyloxy]-2′-(trifluoromethoxy)biphenyl-3-yl}propanoic acid]",Inhibition Rate of Human PAI-1 Activity (%),recombinant human PAI-1 [3]; compound 5 μM,52%
same,Inhibition Rate of Human PAI-1 Activity (%),recombinant human PAI-1 [3]; compound 10 μM,80%
same,Inhibition Rate of Human PAI-1 Activity (%),recombinant human PAI-1 [3]; compound 25 μM,>99%
"CC(C)(C)c1ccc(-c2ccc(OCc3ccccc3OC(F)(F)F)c(CCC(=O)O)c2)cc1 [Compound 74, 3-{4′-(tert-butyl)-4-[2-(trifluoromethoxy)benzyloxy]biphenyl-3-yl}propanoic acid]",Inhibition Rate of Human PAI-1 Activity (%),recombinant human PAI-1 [3]; compound 5 μM,37%
same,Inhibition Rate of Human PAI-1 Activity (%),recombinant human PAI-1 [3]; compound 10 μM,70%
same,Inhibition Rate of Human PAI-1 Activity (%),recombinant human PAI-1 [3]; compound 25 μM,94%
"CC(C)(C)c1ccc(-c2ccc(OCc3cccc(OC(F)(F)F)c3)c(CCC(=O)O)c2)cc1 [Compound 75, 3-{4′-(tert-butyl)-4-[3-(trifluoromethoxy)benzyloxy]biphenyl-3-yl}propanoic acid]",Inhibition Rate of Human PAI-1 Activity (%),recombinant human PAI-1 [3]; compound 5 μM,40%
same,Inhibition Rate of Human PAI-1 Activity (%),recombinant human PAI-1 [3]; compound 10 μM,74%
same,Inhibition Rate of Human PAI-1 Activity (%),recombinant human PAI-1 [3]; compound 25 μM,95%
"CC(C)(C)c1ccc(-c2ccc(OCc3ccc(C(F)(F)F)cc3)c(CCC(=O)O)c2)cc1 [Compound 77, 3-{4′-(tert-butyl)-4-[4-(trifluoromethyl)benzyloxy]biphenyl-3-yl}propanoic acid]",Inhibition Rate of Human PAI-1 Activity (%),recombinant human PAI-1 [3]; compound 5 μM,47%
same,Inhibition Rate of Human PAI-1 Activity (%),recombinant human PAI-1 [3]; compound 10 μM,71%
same,Inhibition Rate of Human PAI-1 Activity (%),recombinant human PAI-1 [3]; compound 25 μM,95%
"CCCCc1ccc(COc2ccc(-c3ccc(C(C)(C)C)cc3)cc2CCC(=O)O)cc1 [Compound 78, 3-[4′-(tert-butyl)-4-(4-butylbenzyloxy)biphenyl-3-yl]propanoic acid]",Inhibition Rate of Human PAI-1 Activity (%),recombinant human PAI-1 [3]; compound 5 μM,51%
same,Inhibition Rate of Human PAI-1 Activity (%),recombinant human PAI-1 [3]; compound 10 μM,80%
same,Inhibition Rate of Human PAI-1 Activity (%),recombinant human PAI-1 [3]; compound 25 μM,93%
